{"source": "paper PMC10443802", "about": "“Targeting a xenobiotic transporter to ameliorate vincristine-induced sensory neuropathy” (JCI Insight, 2023)", "key": {"[1]": {"target": "T1, mOATP1B2 (Mus musculus, UniProt Q9JJL3)", "T1 sequence (Q9JJL3 1-689)": "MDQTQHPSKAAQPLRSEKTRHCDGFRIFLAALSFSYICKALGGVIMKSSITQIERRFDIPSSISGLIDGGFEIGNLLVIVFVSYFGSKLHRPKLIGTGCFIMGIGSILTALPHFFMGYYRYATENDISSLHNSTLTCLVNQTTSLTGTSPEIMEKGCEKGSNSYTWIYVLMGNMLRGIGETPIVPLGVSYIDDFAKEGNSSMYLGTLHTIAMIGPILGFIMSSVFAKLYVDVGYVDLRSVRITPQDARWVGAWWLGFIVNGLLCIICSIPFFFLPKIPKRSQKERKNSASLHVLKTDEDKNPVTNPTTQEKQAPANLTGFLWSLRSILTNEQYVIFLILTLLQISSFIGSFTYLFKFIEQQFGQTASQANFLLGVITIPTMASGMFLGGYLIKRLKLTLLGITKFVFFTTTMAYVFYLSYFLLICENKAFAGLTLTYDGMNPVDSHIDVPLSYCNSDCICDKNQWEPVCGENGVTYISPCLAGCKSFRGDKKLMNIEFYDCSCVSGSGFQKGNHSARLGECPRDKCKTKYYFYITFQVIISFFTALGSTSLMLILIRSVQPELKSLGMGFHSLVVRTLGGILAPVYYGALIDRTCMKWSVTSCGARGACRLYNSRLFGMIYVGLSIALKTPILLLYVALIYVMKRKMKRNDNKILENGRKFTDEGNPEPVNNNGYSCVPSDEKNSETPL", "assay": "EβG uptake in HEK293 cells overexpressing mOATP1B2", "assay_type": "in vitro ADME", "experimental": "DRG, sciatic and caudal nerves were prepared, stained with toluidine blue, and examined with a Zeiss Axioskop WideField Light Microscope, as described previously (10). Representative images were captured with a QIClick Digital CCD color camera. For DRG morphometrics, the somatic size was measured for each cell containing nucleolus, and at least 200 DRG neurons per animal were manually measured and analyzed with a computer-assisted image analyzer (ImageJ software, Bethesda, MD). For sciatic nerve, all myelinated fibers evaluable in the analyzed space were counted and the internal (axonal) and external (total) diameters of myelinated fibers were measured on at least 500 myelinated fibers/nerve. The histograms of g-ratio (axonal diameter/whole fiber diameter as a measure of myelination degree in each fiber) distribution were generated. An observer blinded to the group compositions performed all the morphometric determinations.\nCellular accumulation. Human embryonic kidney (HEK293) cells (ATCC) overexpressing OATP1B1, […]\nAfter incubation, transport was halted by aspirating radiolabeled drug, and rinsing the cells three times with ice-cold 1X PBS. Total radioactivity originating from the substrates was measured by lysing the cells with 1N NaOH, neutralized with 2N HCL, and measuring total radioactivity by liquid scintillation counting using an LS 6500 Counter (Beckman). […]"}, "[2]": {"target": "T2, hOATP1B1 (Homo sapiens, UniProt Q9Y6L6)", "T2 sequence (Q9Y6L6 1-691)": "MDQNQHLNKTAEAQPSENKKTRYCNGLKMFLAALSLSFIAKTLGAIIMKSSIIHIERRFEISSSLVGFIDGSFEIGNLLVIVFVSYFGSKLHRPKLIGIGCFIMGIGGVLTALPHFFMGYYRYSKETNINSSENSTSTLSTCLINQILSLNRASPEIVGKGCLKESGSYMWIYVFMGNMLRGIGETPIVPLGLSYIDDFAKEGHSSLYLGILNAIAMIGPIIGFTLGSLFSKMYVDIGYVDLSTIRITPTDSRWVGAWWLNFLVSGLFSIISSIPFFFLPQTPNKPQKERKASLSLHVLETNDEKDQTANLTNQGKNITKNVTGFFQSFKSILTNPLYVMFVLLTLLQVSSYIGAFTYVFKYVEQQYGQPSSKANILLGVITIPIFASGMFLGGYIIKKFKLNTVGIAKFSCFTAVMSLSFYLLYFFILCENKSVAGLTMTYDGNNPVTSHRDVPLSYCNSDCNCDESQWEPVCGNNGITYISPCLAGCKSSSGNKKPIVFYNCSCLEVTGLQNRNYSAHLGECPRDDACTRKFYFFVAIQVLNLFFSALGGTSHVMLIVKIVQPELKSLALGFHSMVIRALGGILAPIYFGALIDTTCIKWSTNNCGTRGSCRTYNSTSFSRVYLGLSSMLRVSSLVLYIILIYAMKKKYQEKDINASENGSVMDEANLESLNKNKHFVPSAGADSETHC", "assay": "EβG uptake in HEK293 cells overexpressing hOATP1B1", "assay_type": "in vitro ADME"}, "[3]": {"target": "T3, hOATP1B3 (Homo sapiens, UniProt Q9NPD5)", "T3 sequence (Q9NPD5 1-702)": "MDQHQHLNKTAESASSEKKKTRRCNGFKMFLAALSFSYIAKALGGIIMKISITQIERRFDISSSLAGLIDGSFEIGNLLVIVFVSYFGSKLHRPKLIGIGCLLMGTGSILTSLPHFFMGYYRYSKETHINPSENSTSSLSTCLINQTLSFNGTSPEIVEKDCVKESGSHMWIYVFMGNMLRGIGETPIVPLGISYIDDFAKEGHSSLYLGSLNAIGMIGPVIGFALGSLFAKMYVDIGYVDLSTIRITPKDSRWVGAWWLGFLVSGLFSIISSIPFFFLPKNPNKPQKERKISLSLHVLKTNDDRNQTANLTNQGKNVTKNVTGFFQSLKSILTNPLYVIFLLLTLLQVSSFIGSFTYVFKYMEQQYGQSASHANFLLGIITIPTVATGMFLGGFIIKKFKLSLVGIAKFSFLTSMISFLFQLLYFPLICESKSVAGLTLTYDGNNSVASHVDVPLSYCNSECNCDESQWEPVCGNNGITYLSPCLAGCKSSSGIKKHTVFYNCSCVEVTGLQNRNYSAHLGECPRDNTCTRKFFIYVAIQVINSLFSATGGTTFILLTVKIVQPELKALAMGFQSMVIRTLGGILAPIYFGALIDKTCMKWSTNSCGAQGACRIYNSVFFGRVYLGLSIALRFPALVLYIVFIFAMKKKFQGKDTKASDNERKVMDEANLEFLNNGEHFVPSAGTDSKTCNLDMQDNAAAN", "assay": "EβG uptake in HEK293 cells overexpressing hOATP1B3", "assay_type": "in vitro ADME"}, "[4]": {"system": "OATP1B2", "assay": "Plasma level and DRG/plasma ratio of α-tocopherol in mice (biomarker of OATP1B2 function)", "assay_type": "in vivo, mouse"}, "[5]": {"target": "T2, hOATP1B1", "assay": "α-tocopherol uptake in HEK293 cells overexpressing hOATP1B1", "assay_type": "in vitro ADME"}, "[6]": {"system": "OATP1B2", "assay": "Untargeted metabolomics of plasma and DRG, WT vs OATP1B2-deficient mice", "assay_type": "in vivo, mouse", "from_the_text": "(A) Schematic overview of the untargeted metabolomics screen to discover an endogenous biomarker of OATP1B2. […] Positive fold change indicates higher plasma concentration in OATP1B2^–/– mice (n = 6 per group). […] (C) Volcano plot of differentially endogenous metabolites in untreated whole DRG samples of WT mice or OATP1B2^–/– mice. Negative fold change indicates lower DRG levels in OATP1B2^–/– mice (n = 6 per group). (D) Plasma levels and DRG/plasma ratios of α-tocopherol in WT mice or OATP1B2^–/– mice in secondary validation studies. […] Data are normalized to baseline levels observed in WT mice (n = 3 per group)."}, "[7]": {"target": "T3, hOATP1B3", "assay": "α-tocopherol uptake in HEK293 cells overexpressing hOATP1B3", "assay_type": "in vitro ADME"}, "[8]": {"details": "cited from earlier work"}, "[9]": {"target": "T3, hOATP1B3", "assay": "Inhibition of EβG uptake in HEK293 cells overexpressing hOATP1B3"}}, "note": "Where “and” joins values, the source holds several entries; their conditions need not be identical. Identical values can stand only once."}
{"smiles": "C[C@]12CC[C@@H]3c4ccc(O)cc4CC[C@H]3[C@@H]1CC[C@@H]2O[C@@H]1O[C@H](C(=O)O)[C@@H](O)[C@H](O)[C@H]1O", "note": "[EβG, estradiol-17β-ᴅ-glucuronide]", "values": [{"measurement": "EβG uptake (% of vector)", "setting": "[1]", "value": "2727.12 % of vector and 2435.39 % of vector and 2079.28 % of vector"}, {"measurement": "EβG uptake (% of vector)", "setting": "[2]", "value": "1260.82 % of vector and 1125.55 % of vector and 1194.22 % of vector"}, {"measurement": "EβG uptake (% of vector)", "setting": "[3]", "value": "5469.07 % of vector and 5408.81 % of vector and 5929.51 % of vector"}]}
{"smiles": "Cc1c(C)c2c(c(C)c1O)CC[C@@](C)(CCC[C@H](C)CCC[C@H](C)CCCC(C)C)O2", "note": "[α-tocopherol]", "values": [{"measurement": "Level of α-tocopherol (% of wild-type)", "setting": "[4]; DRG, OATP1B2(-/-) mice", "value": "28.1345 % of wild-type and 39.8965 % of wild-type and 39.7351 % of wild-type and 42.7289 % of wild-type and 36.0477 % of wild-type and 32.6784 % of wild-type"}, {"measurement": "Level of α-tocopherol (% of wild-type)", "setting": "[4]; DRG, Wild-type mice", "value": "86.7441 % of wild-type and 109.645 % of wild-type and 120.39 % of wild-type and 114.671 % of wild-type and 77.0519 % of wild-type and 91.498 % of wild-type"}, {"measurement": "Level of α-tocopherol (% of wild-type baseline), relative DRG/plasma ratio", "setting": "[4]; KO (OATP1B2-/-) mice", "value": "39.9993 % of wild-type baseline and 37.2252 % of wild-type baseline and 46.6384 % of wild-type baseline"}, {"measurement": "Level of α-tocopherol (% of wild-type baseline), DRG/Plasma Ratio", "setting": "[4]; KO mice", "value": "39.9993% and 37.2252% and 46.6384%"}, {"measurement": "Level of α-tocopherol (% of wild-type baseline), Plasma", "setting": "[4]; KO mice", "value": "178.006% and 210.63% and 138.224%"}, {"measurement": "Level of α-tocopherol (% of wild-type)", "setting": "[4]; Plasma, OATP1B2(-/-) mice", "value": "240.656 % of wild-type and 154.285 % of wild-type and 188.158 % of wild-type and 206.445 % of wild-type and 170.946 % of wild-type and 257.161 % of wild-type"}, {"measurement": "Level of α-tocopherol (% of wild-type)", "setting": "[4]; Plasma, Wild-type mice", "value": "128.573 % of wild-type and 75.6647 % of wild-type and 109.778 % of wild-type and 78.7903 % of wild-type and 110.315 % of wild-type and 96.8791 % of wild-type"}, {"measurement": "Level of α-tocopherol (% of wild-type baseline), relative DRG/plasma ratio", "setting": "[4]; WT mice, baseline", "value": "92.6568 % of wild-type baseline and 110.888 % of wild-type baseline and 96.4551 % of wild-type baseline"}, {"measurement": "Level of α-tocopherol (% of wild-type baseline), DRG/Plasma Ratio", "setting": "[4]; WT mice", "value": "92.6568% and 110.888% and 96.4551%"}, {"measurement": "Level of α-tocopherol (% of wild-type baseline), Plasma", "setting": "[4]; WT mice", "value": "108.759% and 91.8035% and 99.4376%"}, {"measurement": "α-tocopherol uptake (% of vehicle)", "setting": "[5]; VC cells, control for hOATP1B1", "value": "88.8965% and 111.905% and 99.1984%"}, {"measurement": "α-tocopherol uptake (% of vehicle)", "setting": "[5]; cells overexpressing hOATP1B1", "value": "109.574% and 76.2241% and 88.2425%"}, {"measurement": "Fold of Change KO/WT", "setting": "[6]; DRG samples, untreated OATP1B2-deficient (KO) vs wild-type mice", "value": 0.730}, {"measurement": "Fold of Change KO/WT", "setting": "[6]; untreated plasma, OATP1B2-deficient (KO) vs wild-type mice", "value": 2.03}, {"measurement": "Substrate status", "setting": "[7]; OATP1B3", "value": "transported substrate of OATP1B3"}, {"measurement": "α-tocopherol uptake (% of vehicle)", "setting": "[7]; VC cells, control for hOATP1B3", "value": "86.9835% and 91.7117% and 121.305% and 85.9356% and 106.189% and 107.875%"}, {"measurement": "α-tocopherol uptake (% of vehicle)", "setting": "[7]; cells overexpressing hOATP1B3", "value": "213.78% and 147.762% and 148.702% and 127.524% and 133.603% and 184.662%"}, {"measurement": "Share recovered in the liver", "setting": "[8]", "value": "up to 90%"}, {"measurement": "Inhibition of transporter-mediated uptake of EβG", "setting": "[9]", "value": "can mediate inhibition of transporter-mediated uptake"}]}
